Legend:
wild mustard = test: Test D preemergence; assay type: in vivo, Sinapis arvensis; settings: Brassica, pre-emergence
How it was run: (§1)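 Species were sown in silt loam for preemergence treatment, or grown in peat-based medium to the 1–4-leaf stage (2–18 cm) for postemergence sprays. Test chemicals were formulated in a non-phytotoxic solvent mixture with surfactant. After 7–21 days in a controlled environment, plants were rated visually against controls on a 0 (no effect) to 100 (complete control) scale.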

Italian ryegrass = test: Test E postemergence; assay type: in vivo, Lolium multiflorum; settings: Lolium multiflorum, post-emergence, read-out: Plant response rating, Ryegrass, Italian
Description: (§2) Seeds of plant species selected from corn (Zea mays), soybean (Glycine max), velvetleaf (Abutilon theophrasti), lambsquarters (Chenopodium album), wild poinsettia (Euphorbia heterophylla), palmer pigweed (Amaranthus palmeri), waterhemp (common waterhemp, Amaranthus rudis), surinam grass (Brachiaria decumbens), large (Lg) crabgrass (Digitaria sanguinalis), Brazilian crabgrass (Digitaria horizontalis), fall panicum (Panicum dichotomiflorum), giant foxtail (Setaria faberii), green foxtail (Setaria viridis), goosegrass (Eleusine indica), johnsongrass (Sorghum halepense), ragweed (common ragweed, Ambrosia elatior), barnyardgrass (Echinochloa crus-galli), sandbur (southern sandbur, Cenchrus echinatus), arrowleaf sida (Sida rhombifolia), Italian ryegrass (Lolium multiflorum), dayflower (Virginia (VA) dayflower, Commelina virginica), field bindweed (Convolvulus arvensis), morningglory (Ipomoea coccinea), nightshade (eastern black nightshade, Solanum ptycanthum), kochia (Kochia scoparia), yellow nutsedge (Cyperus esculentus), cocklebur (common cocklebur, Xanthium strumarium), smartweed (ladysthumb smartweed, and hairy beggarticks (Bidens pilosa), were planted into a silt loam soil and treated preemergence with test chemicals formulated in a non-phytotoxic solvent mixture which included a surfactant.
(§3) At the same time, plants from these crop and weed species and also horseweed (Canada horseweed, Conyza canadensis), waterhemp_RES1, (ALS & Triazine resistant common waterhemp, Amaranthus rudis), and waterhemp_RES2, (ALS & HPPD resistant common waterhemp, Amaranthus rudis) were planted in pots containing Redi-Earth® planting medium (Scotts Company, 14111 Scottslawn Road, Marysville, Ohio 43041) comprising spaghnum peat moss, vermiculite, wetting agent and starter nutrients were treated with postemergence applications of test chemicals formulated in the same manner. Plants ranged in height from 2 to 18 cm for postemergence treatments (1- to 4-leaf stage). Treated plants and controls were maintained in a greenhouse for 14 to 21 days, after which time all species were compared to controls and visually evaluated. Plant response ratings, summarized in Table E, are based on a scale of 0 to 100 where 0 is no effect and 100 is complete control. A dash (-) response means no test result.

spring barley = test: Test D postemergence; assay type: in vivo, Hordeum vulgare; settings: Hordeum vulgare, post-emergence, Postemergence, scale 0 to 100 (0 no effect, 100 complete control), read-out: Plant response rating, Barley, Spring
How it was run: as §1

winter barley = test: Test D postemergence; assay type: in vivo, Hordeum vulgare; settings: Hordeum vulgare, post-emergence, Postemergence, scale 0 to 100 (0 no effect, 100 complete control), read-out: Plant response rating, Barley, Winter
How it was run: as §1

pigweed = test: Test D preemergence; assay type: in vivo, Amaranthus retroflexus; settings: Amaranthus retroflexus, pre-emergence
How it was run: as §1

fall panicum = test: Test E postemergence; assay type: in vivo, Panicum dichotomiflorum; settings: Panicum dichotomiflorum, post-emergence, read-out: Plant response rating, Panicum, Fall
Description: as §2, §3

field poppy = test: Test D postemergence; assay type: in vivo, Papaver rhoeas; settings: Papaver rhoeas, post-emergence
How it was run: as §1

dayflower = test: Test E postemergence; assay type: in vivo, Commelina virginica; settings: Commelina virginica, post-emergence, read-out: Plant response rating, Dayflower, VA
Description: as §2, §3

wild poinsettia = test: Test E postemergence; assay type: in vivo, Euphorbia heterophylla; settings: Euphorbia heterophylla, post-emergence, read-out: Plant response rating, Poinsettia, Wild
How it was run: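 Test chemicals formulated in a non-phytotoxic solvent mixture containing a surfactant were applied preemergence to seeds in silt loam soil or postemergence to plants at the 1- to 4-leaf stage in potting mix. After 14 to 21 days in a greenhouse, injury was visually rated against controls on a 0-100 scale (0 = no effect, 100 = complete control).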

bromegrass, downy = test: Test D postemergence; assay type: in vivo, Bromus tectorum; settings: Bromus tectorum, post-emergence, Postemergence, scale 0 to 100 (0 no effect, 100 complete control), read-out: Plant response rating, Bromegrass, Downy
How it was run: as §1

oilseed rape = test: Test D postemergence; assay type: in vivo, Brassica napus; settings: Brassica napus, post-emergence
How it was run: as §1

chamomile = test: Test D preemergence; assay type: in vivo, Matricaria inodora; settings: Tripleurospermum inodorum, pre-emergence
How it was run: as §1

[1] = Postemergence, 31 g ai/ha, scale 0 to 100
[2] = Postemergence, 62 g ai/ha, scale 0 to 100
[3] = Postemergence, 125 g ai/ha, scale 0 to 100
[4] = postemergence, 8 g ai/ha, scale 0 to 100, 0 no effect, 100 complete control
[5] = postemergence, 16 g ai/ha, scale 0 to 100, 0 no effect, 100 complete control

With `Clc1cnc(Oc2ccccc2-n2cc(Br)cn2)nc1` [Compound 7, 2-[2-(4-bromo-1H-pyrazol-1-yl)phenoxy]-5-chloropyrimidine] the pest or weed control at 16 g/ha (wild mustard; 16 g ai/ha, scale 0 (no effect) to 100 (complete control), read-out: Plant response rating, Mustard, Wild) was 20%, the pest or weed control at 31 g/ha (wild mustard; 31 g ai/ha, scale 0-100, read-out: Plant response rating, Mustard, Wild) was 20% and the pest or weed control at 62 g/ha (wild mustard; 62 g ai/ha, scale 0-100, read-out: Plant response rating, Mustard, Wild) was 80%. It also gave a pest or weed control at 125 g/ha (wild mustard; 125 g ai/ha, scale 0-100, read-out: Plant response rating, Mustard, Wild) of 90%, a pest or weed control at 250 g/ha (wild mustard; 250 g ai/ha, scale 0-100, read-out: Plant response rating, Mustard, Wild) of 100% and a pest or weed control at 31 g/ha (Italian ryegrass; [1]) of 0%. It also gave a pest or weed control at 62 g/ha (Italian ryegrass; [2]) of 0%, a pest or weed control at 125 g/ha (Italian ryegrass; [3]) of 0% and a pest or weed control at 8 g/ha (Italian ryegrass; [4]) of 0%. For the same molecule, the pest or weed control at 16 g/ha (Italian ryegrass; [5]) was 0%, the plant injury at 16 g/ha (spring barley; 16 g ai/ha) was 0% and the plant injury at 31 g/ha (spring barley; 31 g ai/ha) was 0%. It also gave a plant injury at 62 g/ha (spring barley; 62 g ai/ha) of 0%, a plant injury at 125 g/ha (spring barley; 125 g ai/ha) of 5% and a plant injury at 250 g/ha (spring barley; 250 g ai/ha) of 5%. It also gave a plant injury at 16 g/ha (winter barley; 16 g ai/ha) of 0%, a plant injury at 31 g/ha (winter barley; 31 g ai/ha) of 0% and a plant injury at 62 g/ha (winter barley; 62 g ai/ha) of 0%. For the same molecule, the plant injury at 125 g/ha (winter barley; 125 g ai/ha) was 0%, the plant injury at 250 g/ha (winter barley; 250 g ai/ha) was 0% and the pest or weed control at 16 g/ha (pigweed; 16 g ai/ha, scale 0 (no effect) to 100 (complete control), read-out: Plant response rating, Pigweed) was 0%. It also gave a pest or weed control at 31 g/ha (pigweed; 31 g ai/ha, scale 0 (no effect) to 100 (complete control), read-out: Plant response rating, Pigweed) of 30%, a pest or weed control at 62 g/ha (pigweed; 62 g ai/ha, scale 0-100, read-out: Plant response rating, Pigweed) of 90% and a pest or weed control at 125 g/ha (pigweed; 125 g ai/ha, scale 0-100, read-out: Plant response rating, Pigweed) of 90%. The pest or weed control at 250 g/ha (pigweed; 250 g ai/ha, scale 0-100, read-out: Plant response rating, Pigweed) was 90%, the pest or weed control at 31 g/ha (fall panicum; [1]) was 15% and the pest or weed control at 62 g/ha (fall panicum; [2]) was 50%. The pest or weed control at 125 g/ha (fall panicum; [3]) was 0%, the pest or weed control at 8 g/ha (fall panicum; [4]) was 0% and the pest or weed control at 16 g/ha (fall panicum; [5]) was 0%. The pest or weed control at 16 g/ha (field poppy; 16 g ai/ha, scale 0-100, read-out: Plant response rating, Field Poppy) was 10%, the pest or weed control at 31 g/ha (field poppy; 31 g ai/ha, scale 0 to 100 (0 no effect, 100 complete control), read-out: Plant response rating, Field Poppy) was 20% and the pest or weed control at 62 g/ha (field poppy; 62 g ai/ha, scale 0 to 100 (0 no effect, 100 complete control), read-out: Plant response rating, Field Poppy) was 50%. It also gave a pest or weed control at 125 g/ha (field poppy; 125 g ai/ha, scale 0 to 100 (0 no effect, 100 complete control), read-out: Plant response rating, Field Poppy) of 50%, a pest or weed control at 250 g/ha (field poppy; 250 g ai/ha, scale 0 to 100 (0 no effect, 100 complete control), read-out: Plant response rating, Field Poppy) of 60% and a pest or weed control at 31 g/ha (dayflower; [1]) of 50%. For the same molecule, the pest or weed control at 62 g/ha (dayflower; [2]) was 70%, the pest or weed control at 125 g/ha (dayflower; [3]) was 90% and the pest or weed control at 8 g/ha (dayflower; [4]) was 10%. The pest or weed control at 16 g/ha (dayflower; [5]) was 40%, the pest or weed control at 31 g/ha (wild poinsettia; [1]) was 30% and the pest or weed control at 62 g/ha (wild poinsettia; [2]) was 60%. The pest or weed control at 125 g/ha (wild poinsettia; [3]) was 60%, the pest or weed control at 8 g/ha (wild poinsettia; [4]) was 0% and the pest or weed control at 16 g/ha (wild poinsettia; [5]) was 30%. It also gave a pest or weed control at 16 g/ha (bromegrass, downy; 16 g ai/ha) of 0%, a pest or weed control at 31 g/ha (bromegrass, downy; 31 g ai/ha) of 0% and a pest or weed control at 62 g/ha (bromegrass, downy; 62 g ai/ha) of 0%. It also gave a pest or weed control at 125 g/ha (bromegrass, downy; 125 g ai/ha) of 5%, a pest or weed control at 250 g/ha (bromegrass, downy; 250 g ai/ha) of 5% and a plant injury at 16 g/ha (oilseed rape; 16 g ai/ha, scale 0-100, read-out: Plant response rating, Oilseed Rape) of 75%. The plant injury at 31 g/ha (oilseed rape; 31 g ai/ha, scale 0 to 100 (0 no effect, 100 complete control), read-out: Plant response rating, Oilseed Rape) was 80%, the plant injury at 62 g/ha (oilseed rape; 62 g ai/ha, scale 0 to 100 (0 no effect, 100 complete control), read-out: Plant response rating, Oilseed Rape) was 95% and the plant injury at 125 g/ha (oilseed rape; 125 g ai/ha, scale 0 to 100 (0 no effect, 100 complete control), read-out: Plant response rating, Oilseed Rape) was 100%. The plant injury at 250 g/ha (oilseed rape; 250 g ai/ha, scale 0 to 100 (0 no effect, 100 complete control), read-out: Plant response rating, Oilseed Rape) was 100%, the pest or weed control at 16 g/ha (chamomile; 16 g ai/ha, scale 0 (no effect) to 100 (complete control), read-out: Plant response rating, Chamomile) was 0% and the pest or weed control at 31 g/ha (chamomile; 31 g ai/ha, scale 0-100, read-out: Plant response rating, Chamomile) was 0%. For the same molecule, the pest or weed control at 62 g/ha (chamomile; 62 g ai/ha, scale 0-100, read-out: Plant response rating, Chamomile) was 0%, the pest or weed control at 125 g/ha (chamomile; 125 g ai/ha, scale 0-100, read-out: Plant response rating, Chamomile) was 20% and the pest or weed control at 250 g/ha (chamomile; 250 g ai/ha, scale 0-100, read-out: Plant response rating, Chamomile) was 25%.

From patent publication US9695155B2, “Herbicidal substituted pyrimidinyloxy benzene compounds” (E. I. DU PONT DE NEMOURS AND COMPANY, priority 2013, dated 2017)
